Experimental data taken from ChEMBL document CHEMBL4138146, “A Schmidt rearrangement-mediated synthesis of novel tetrahydro-benzo[1,4]diazepin-5-ones as potential anticancer and antiprotozoal agents” (Eur J Med Chem, 2017).
≈ marks a conversion by molar mass, not a printed value.

Legend:
Plasmodium falciparum = assay: Antimalarial activity against chloroquine-sensitive Plasmodium falciparum 3D7 incubated for 48 hrs by malstat reagent based LDH release assay; type: functional, organism-based; details: 3D7, 48 h
Leishmania panamensis = assay: Antileishmanial activity against EpiR/GFP fused Leishmania panamensis MHOM/CO/87/UA140 intracellular amastigotes infected in human […] cells after 72 hrs by flow cytometric method; type: functional, organism-based; details: MHOM/CO/87/UA140, 72 h
U-937 = assay: Cytotoxicity against human U937 cells after 72 hrs by MTT assay; type: functional; details: U-937, 72 h, read-out: LC50 (the source's name)
Trypanosoma cruzi = assay: Antitrypanosomal activity against Trypanosoma cruzi Tulahuen amastigote forms infected in human U937 cells after 72 hrs by beta-galactosidase reporter gene assay; type: functional, organism-based; details: U-937, 72 h

Structure (SMILES)	EC50 (Plasmodium falciparum)	EC50 (Leishmania panamensis)	CC50 (U-937)	EC50 (Trypanosoma cruzi)
O=C1NCC(c2cc3cc(Br)ccc3[nH]c2=O)Nc2ccccc21 (configuration not stated)	13.6 µg/mL (≈ 35.4 µM)	15.3 µg/mL (≈ 39.7 µM)	57 µg/mL (≈ 148 µM)	–
O=C(Cn1ccnc1[N+](=O)[O-])NCc1ccccc1 [BENZNIDAZOLE]	–	–	180 µg/mL (≈ 692 µM)	–
CCCCOc1nc2ccc(Br)cc2cc1C1CNC(=O)c2ccccc2N1 (configuration not stated)	50.8 µg/mL (≈ 115 µM)	34.2 µg/mL (≈ 77.6 µM)	> 200 µg/mL	–
O=C1NCC(c2cc3cc(Cl)ccc3[nH]c2=O)Nc2ccccc21 (configuration not stated)	43.2 µg/mL (≈ 127 µM)	19.4 µg/mL (≈ 57.2 µM)	192 µg/mL (≈ 566 µM)	123 µg/mL (≈ 361 µM)
C[C@@H]1[C@H](O)[C@@H](C)/C=C/C=C/C=C/C=C/C=C/C=C/C=C/[C@H](O[C@@H]2O[C@H](C)[C@@H](O)[C@H](N)[C@@H]2O)C[C@@H]2O[C@](O)(C[C@@H](O)C[C@@H](O)[C@H](O)CC[C@@H](O)C[C@@H](O)CC(=O)O[C@H]1C)C[C@H](O)[C@H]2C(=O)O [AMPHOTERICIN B]	–	–	36 µg/mL (≈ 39 µM)	–
